# Tested on: MV-4-11 cells
# Experiment: Gene expression microarray analysis (Affymetrix PrimeView) and GSEA
# Assay type: cell-based, human
# Parameters: RFU PODN (11730768_x_at) / Fold change /veh PODN (11730768_x_at) / RFU LINC00158 (11744669_a_at) / Fold change /veh LINC00158 (11744669_a_at) / RFU DUSP10 (11751237_a_at) / Fold change /veh DUSP10 (11751237_a_at) / RFU ID3 (11757404_x_at) / Fold change /veh ID3 (11757404_x_at) / RFU PLEKHG5 (11737974_s_at) / Fold change /veh PLEKHG5 (11737974_s_at) / RFU LRRC4B (11730491_at) / Fold change /veh LRRC4B (11730491_at) / RFU GIMAP4 (11747438_a_at) / Fold change /veh GIMAP4 (11747438_a_at) / RFU KRT8 (11758183_x_at) / Fold change /veh KRT8 (11758183_x_at) / RFU CNN1 (11734310_a_at) / Fold change /veh CNN1 (11734310_a_at) / RFU VPS37D (11726825_at) / Fold change /veh VPS37D (11726825_at) / RFU C10orf10 (11716522_x_at) / Fold change /veh C10orf10 (11716522_x_at) / RFU KIR2DL2 /// KIR2DL4 /// KIR2DL5A /// KIR2DL5B /// KIR2DS1 /// KIR2DS2 /// KIR2DS3 /// KIR2DS4 /// KIR3DL3 /// KIR3DL3 /// KIR3DS1 (11738374_at) / Fold change /veh KIR2DL2 /// KIR2DL4 /// KIR2DL5A /// KIR2DL5B /// KIR2DS1 /// KIR2DS2 /// KIR2DS3 /// KIR2DS4 /// KIR3DL3 /// KIR3DL3 /// KIR3DS1 (11738374_at) / RFU C1QL1 (11718748_at) / Fold change /veh C1QL1 (11718748_at) / RFU TMPRSS4 (11747572_a_at) / Fold change /veh TMPRSS4 (11747572_a_at) / RFU HAMP (11756126_x_at) / Fold change /veh HAMP (11756126_x_at) / RFU RNFT2 (11725882_a_at) / Fold change /veh RNFT2 (11725882_a_at) / RFU NR4A2 (11747474_a_at) / Fold change /veh NR4A2 (11747474_a_at) / RFU ABCC12 (11746883_a_at) / Fold change /veh ABCC12 (11746883_a_at) / RFU TMEM136 (11760407_x_at) / Fold change /veh TMEM136 (11760407_x_at) / RFU CLDN22 /// WWC2 (11732394_at) / Fold change /veh CLDN22 /// WWC2 (11732394_at) / RFU HLA-DPB1 (11760878_x_at) / Fold change /veh HLA-DPB1 (11760878_x_at) / RFU SPINT1 (11716480_a_at) / Fold change /veh SPINT1 (11716480_a_at) / RFU GAP43 (11754022_s_at) / Fold change /veh GAP43 (11754022_s_at) / RFU A4GNT (11735810_at) / Fold change /veh A4GNT (11735810_at) / RFU PRB3 (11715151_x_at) / Fold change /veh PRB3 (11715151_x_at) / RFU TUBB4B (11761932_at) / Fold change /veh TUBB4B (11761932_at) / RFU CAPN14 (11732068_a_at) / Fold change /veh CAPN14 (11732068_a_at) / RFU TMCC2 (11721928_a_at) / Fold change /veh TMCC2 (11721928_a_at) / RFU IRGQ (11745062_a_at) / Fold change /veh IRGQ (11745062_a_at) / RFU FAM174B (11720279_a_at) / Fold change /veh FAM174B (11720279_a_at) / RFU TMPRSS4 (11748680_a_at) / Fold change /veh TMPRSS4 (11748680_a_at) / RFU FAM212B (11763350_a_at) / Fold change /veh FAM212B (11763350_a_at) / RFU PLEKHG5 (11743358_a_at) / Fold change /veh PLEKHG5 (11743358_a_at) / RFU ZSCAN30 (11745921_a_at) / Fold change /veh ZSCAN30 (11745921_a_at) / RFU CMKLR1 (11741424_a_at) / Fold change /veh CMKLR1 (11741424_a_at) / RFU LOC101060620 /// MAPK8IP1 (11723275_at) / Fold change /veh LOC101060620 /// MAPK8IP1 (11723275_at) / RFU SPTSSB (11747773_x_at) / Fold change /veh SPTSSB (11747773_x_at) / RFU PRSS12 (11739890_at) / Fold change /veh PRSS12 (11739890_at) / RFU BIN1 (11741810_x_at) / Fold change /veh BIN1 (11741810_x_at) / RFU WNT11 (11732464_a_at) / Fold change /veh WNT11 (11732464_a_at) / RFU C10orf10 (11716521_a_at) / Fold change /veh C10orf10 (11716521_a_at) / RFU C5orf56 (11738089_at) / Fold change /veh C5orf56 (11738089_at) / RFU CYB561 (11721691_x_at) / Fold change /veh CYB561 (11721691_x_at) / RFU ANKRD19P (11752326_a_at) / Fold change /veh ANKRD19P (11752326_a_at) / RFU OR2T12 /// OR2T33 /// OR2T8 (11738714_s_at) / Fold change /veh OR2T12 /// OR2T33 /// OR2T8 (11738714_s_at) / RFU VCAN (11748164_a_at) / Fold change /veh VCAN (11748164_a_at) / RFU JSRP1 (11732532_at) / Fold change /veh JSRP1 (11732532_at) / RFU KRTAP10-11 (11738290_x_at) / Fold change /veh KRTAP10-11 (11738290_x_at) / RFU MYO3A (11730013_a_at) / Fold change /veh MYO3A (11730013_a_at) / RFU EBF3 (11725865_a_at) / Fold change /veh EBF3 (11725865_a_at) / RFU CAMK2N1 (11719241_x_at) / Fold change /veh CAMK2N1 (11719241_x_at) / RFU C5orf56 (11738088_a_at) / Fold change /veh C5orf56 (11738088_a_at) / RFU OLFML3 (11715873_a_at) / Fold change /veh OLFML3 (11715873_a_at) / RFU LOC100653217 /// NTM (11731650_a_at) / Fold change /veh LOC100653217 /// NTM (11731650_a_at) / RFU MAPK11 (11762145_a_at) / Fold change /veh MAPK11 (11762145_a_at) / RFU FIZ1 (11724087_x_at) / Fold change /veh FIZ1 (11724087_x_at) / RFU OASL (11726364_x_at) / Fold change /veh OASL (11726364_x_at) / RFU SOX15 (11748057_x_at) / Fold change /veh SOX15 (11748057_x_at) / RFU CD79A (11719716_a_at) / Fold change /veh CD79A (11719716_a_at) / RFU HIST1H1D (11736915_at) / Fold change /veh HIST1H1D (11736915_at) / RFU CASKIN2 (11723855_a_at) / Fold change /veh CASKIN2 (11723855_a_at) / RFU LOC730098 (11760151_x_at) / Fold change /veh LOC730098 (11760151_x_at) / RFU OR4N2 (11742367_at) / Fold change /veh OR4N2 (11742367_at) / RFU PRRT2 (11749266_a_at) / Fold change /veh PRRT2 (11749266_a_at) / RFU SNX32 (11753110_a_at) / Fold change /veh SNX32 (11753110_a_at) / RFU CDHR5 (11726645_a_at) / Fold change /veh CDHR5 (11726645_a_at) / RFU RCAN1 (11760418_a_at) / Fold change /veh RCAN1 (11760418_a_at) / RFU FAM167A (11723789_a_at) / Fold change /veh FAM167A (11723789_a_at) / RFU FAM26E (11764081_at) / Fold change /veh FAM26E (11764081_at) / RFU ISYNA1 (11749810_s_at) / Fold change /veh ISYNA1 (11749810_s_at) / RFU ACY1 (11761880_at) / Fold change /veh ACY1 (11761880_at) / RFU 11764098_at / Fold change /veh 11764098_at / RFU SAMD14 (11745864_x_at) / Fold change /veh SAMD14 (11745864_x_at) / RFU NPB (11741838_a_at) / Fold change /veh NPB (11741838_a_at) / RFU TMPRSS6 (11731388_a_at) / Fold change /veh TMPRSS6 (11731388_a_at) / RFU KRTAP10-2 (11738614_at) / Fold change /veh KRTAP10-2 (11738614_at) / RFU ARHGAP8 /// PRR5-ARHGAP8 (11727945_x_at) / Fold change /veh ARHGAP8 /// PRR5-ARHGAP8 (11727945_x_at) / RFU KRTAP5-7 /// NADSYN1 (11734609_at) / Fold change /veh KRTAP5-7 /// NADSYN1 (11734609_at) / RFU RASL12 (11751679_a_at) / Fold change /veh RASL12 (11751679_a_at) / RFU CDKN2B (11736163_a_at) / Fold change /veh CDKN2B (11736163_a_at) / RFU PRF1 (11729649_at) / Fold change /veh PRF1 (11729649_at) / RFU, ZNF638 /// ZNF638-IT1 / Fold change vs veh, ZNF638 /// ZNF638-IT1 / RFU, PANK3 / Fold change vs veh, PANK3 / RFU, SH3YL1 / Fold change vs veh, SH3YL1 / RFU, ZEB2 / Fold change vs veh, ZEB2 / RFU, NRIP1 / Fold change vs veh, NRIP1 / RFU, PTTG1IP / Fold change vs veh, PTTG1IP / RFU, CAPN2 / Fold change vs veh, CAPN2 / RFU, MED14 / Fold change vs veh, MED14 / RFU, SNORA58 / Fold change vs veh, SNORA58 / RFU, C1orf63 / Fold change vs veh, C1orf63 / RFU, LRRFIP1 / Fold change vs veh, LRRFIP1 / RFU, NDUFAF7 / Fold change vs veh, NDUFAF7 / RFU, SLC12A2 / Fold change vs veh, SLC12A2 / RFU, IBTK / Fold change vs veh, IBTK / RFU, ESF1 / Fold change vs veh, ESF1 / Fold change vs veh, TMEM50B / RFU, TAOK1 / Fold change vs veh, TAOK1 / RFU, ACBD3 / Fold change vs veh, ACBD3 / RFU, TMA16 / Fold change vs veh, TMA16 / RFU, RWDD3 / Fold change vs veh, RWDD3 / RFU, BCAT1 / Fold change vs veh, BCAT1 / RFU, EDEM3 / Fold change vs veh, EDEM3 / RFU, TMEM33 / Fold change vs veh, TMEM33 / RFU, WDR75 / Fold change vs veh, WDR75 / RFU, AHCTF1 / Fold change vs veh, AHCTF1 / RFU, TFRC / Fold change vs veh, TFRC / RFU, ZDHHC17 / Fold change vs veh, ZDHHC17 / RFU, NOM1 / Fold change vs veh, NOM1 / RFU, ARL8B / Fold change vs veh, ARL8B / RFU, ZBTB11 / Fold change vs veh, ZBTB11 / RFU, TAMM41 / Fold change vs veh, TAMM41 / RFU, KIAA1704 /// LOC100996395 / Fold change vs veh, KIAA1704 /// LOC100996395 / RFU, ING1 / Fold change vs veh, ING1 / RFU, TRMT61B / Fold change vs veh, TRMT61B / RFU, FUBP3 / Fold change vs veh, FUBP3 / RFU, TP53 / Fold change vs veh, TP53 / RFU, TNKS2 / Fold change vs veh, TNKS2 / RFU, ZFP14 / Fold change vs veh, ZFP14 / RFU, ACTR2 / Fold change vs veh, ACTR2 / RFU, PPP3R1 / Fold change vs veh, PPP3R1 / RFU, PIK3R1 / Fold change vs veh, PIK3R1 / RFU, HNRNPA1 / Fold change vs veh, HNRNPA1 / RFU, RNF170 / Fold change vs veh, RNF170 / RFU, ZNF28 / Fold change vs veh, ZNF28 / RFU, RNGTT / Fold change vs veh, RNGTT / RFU, OGT / Fold change vs veh, OGT / RFU, BRD1 / Fold change vs veh, BRD1 / RFU, MARS / Fold change vs veh, MARS / RFU, ZNF655 / Fold change vs veh, ZNF655 / RFU, FAHD1 / Fold change vs veh, FAHD1 / RFU, BDP1 / Fold change vs veh, BDP1 / RFU, LRRCC1 / Fold change vs veh, LRRCC1 / RFU, ARID1A / Fold change vs veh, ARID1A / RFU, ZNF146 / Fold change vs veh, ZNF146 / RFU, ZNF330 / Fold change vs veh, ZNF330 / RFU, GPN3 / Fold change vs veh, GPN3 / RFU, C9orf123 / Fold change vs veh, C9orf123 / RFU, N4BP2L2 / Fold change vs veh, N4BP2L2 / RFU, ARFIP1 / Fold change vs veh, ARFIP1 / RFU, FAM179B / Fold change vs veh, FAM179B / RFU, BCL10 / Fold change vs veh, BCL10 / RFU, UHRF1BP1L / Fold change vs veh, UHRF1BP1L / RFU, BET1 / Fold change vs veh, BET1 / RFU, CNOT2 / Fold change vs veh, CNOT2 / RFU, ZNF268 / Fold change vs veh, ZNF268 / Fold change vs veh, ZNF507 / RFU, DGCR2 / Fold change vs veh, DGCR2 / RFU, WDSUB1 / Fold change vs veh, WDSUB1 / Fold change vs veh, HSP90B1 /// MIR3652 / RFU, ADSS / Fold change vs veh, ADSS / RFU, GK / Fold change vs veh, GK / RFU, ZNF148 / Fold change vs veh, ZNF148 / RFU, TAF9 / Fold change vs veh, TAF9 / RFU, SLC1A5 / Fold change vs veh, SLC1A5 / RFU, SLMO2 / Fold change vs veh, SLMO2 / RFU, ABCC4 / Fold change vs veh, ABCC4 / RFU, LOC101060439 /// RAP1B / Fold change vs veh, LOC101060439 /// RAP1B / RFU, RFX7 / Fold change vs veh, RFX7 / RFU, GTPBP10 / Fold change vs veh, GTPBP10 / RFU, CNEP1R1 / Fold change vs veh, CNEP1R1 / RFU, BIVM-ERCC5 /// ERCC5 / Fold change vs veh, BIVM-ERCC5 /// ERCC5 / RFU, ILF3 / Fold change vs veh, ILF3 / RFU 11762660_at / Fold change /veh 11762660_at / RFU VCAN (11757783_s_at) / Fold change /veh VCAN (11757783_s_at) / RFU DDX43 (11728927_at) / Fold change /veh DDX43 (11728927_at) / RFU KRT8 (11758188_x_at) / Fold change /veh KRT8 (11758188_x_at) / RFU NKD1 (11759106_at) / Fold change /veh NKD1 (11759106_at) / RFU SRD5A1 (11742802_a_at) / Fold change /veh SRD5A1 (11742802_a_at) / RFU TPSAB1 /// TPSB2 (11721975_s_at) / Fold change /veh TPSAB1 /// TPSB2 (11721975_s_at) / RFU GSTM3 (11746129_a_at) / Fold change /veh GSTM3 (11746129_a_at) / RFU IL23R (11737362_x_at) / Fold change /veh IL23R (11737362_x_at) / RFU TMEM51 (11727254_a_at) / Fold change /veh TMEM51 (11727254_a_at) / RFU PIWIL2 (11732686_x_at) / Fold change /veh PIWIL2 (11732686_x_at) / RFU ORM1 (11744905_x_at) / Fold change /veh ORM1 (11744905_x_at) / RFU CCDC152 (11743942_at) / Fold change /veh CCDC152 (11743942_at) / RFU ECM1 (11717891_a_at) / Fold change /veh ECM1 (11717891_a_at) / RFU IL23R (11748794_a_at) / Fold change /veh IL23R (11748794_a_at) / RFU TNFAIP8L3 (11732012_x_at) / Fold change /veh TNFAIP8L3 (11732012_x_at) / RFU MBOAT4 (11741988_at) / Fold change /veh MBOAT4 (11741988_at) / RFU 11764193_at / Fold change /veh 11764193_at / RFU TMEM53 (11763286_at) / Fold change /veh TMEM53 (11763286_at) / RFU MAGEB2 (11727129_at) / Fold change /veh MAGEB2 (11727129_at) / RFU TMEM200A (11744735_a_at) / Fold change /veh TMEM200A (11744735_a_at) / RFU CCDC152 (11751479_a_at) / Fold change /veh CCDC152 (11751479_a_at) / RFU FAM211A (11726209_a_at) / Fold change /veh FAM211A (11726209_a_at) / RFU RGS16 (11746705_a_at) / Fold change /veh RGS16 (11746705_a_at) / RFU VCAN (11755009_s_at) / Fold change /veh VCAN (11755009_s_at) / RFU RHOB (11743442_s_at) / Fold change /veh RHOB (11743442_s_at) / RFU RGS16 (11720943_a_at) / Fold change /veh RGS16 (11720943_a_at) / RFU RGS16 (11720944_at) / Fold change /veh RGS16 (11720944_at) / RFU, VPS4B / Fold change vs veh, VPS4B / RFU, CREB1 / Fold change vs veh, CREB1 / RFU, DNAJC13 / Fold change vs veh, DNAJC13 / RFU, GNAQ / Fold change vs veh, GNAQ / RFU, CDK5R1 / Fold change vs veh, CDK5R1 / RFU, ZRANB3 / Fold change vs veh, ZRANB3 / RFU, CUL4A / Fold change vs veh, CUL4A / RFU, CCNY / Fold change vs veh, CCNY / RFU, UFL1 / Fold change vs veh, UFL1 / RFU, COG3 / Fold change vs veh, COG3 / RFU, DIAPH2 / Fold change vs veh, DIAPH2 / RFU, SKA2 / Fold change vs veh, SKA2 / RFU, AFF3 / Fold change vs veh, AFF3 / RFU, LMF1 / Fold change vs veh, LMF1 / RFU, IPO11 / Fold change vs veh, IPO11 / RFU, DFFB / Fold change vs veh, DFFB / RFU, FOXP1 / Fold change vs veh, FOXP1 / RFU, CARD8 / Fold change vs veh, CARD8 / RFU, STRN3 / Fold change vs veh, STRN3 / RFU, ADK / Fold change vs veh, ADK / RFU, RASSF2 / Fold change vs veh, RASSF2 / RFU, WIPF1 / Fold change vs veh, WIPF1 / RFU, LARP1B / Fold change vs veh, LARP1B / RFU, RASA1 / Fold change vs veh, RASA1 / RFU, RB1 / Fold change vs veh, RB1 / RFU, PPFIA1 / Fold change vs veh, PPFIA1 / RFU, MAT2A / Fold change vs veh, MAT2A / RFU, CCT5 / Fold change vs veh, CCT5 / RFU, WDR92 / Fold change vs veh, WDR92 / RFU, CUX1 / Fold change vs veh, CUX1 / RFU, TTC7A / Fold change vs veh, TTC7A / RFU, TMEM135 / Fold change vs veh, TMEM135 / RFU, DEPTOR / Fold change vs veh, DEPTOR / RFU, CPM / Fold change vs veh, CPM / RFU, DNAJB6 / Fold change vs veh, DNAJB6 / RFU, CACNA2D3 / Fold change vs veh, CACNA2D3 / RFU, DTX4 / Fold change vs veh, DTX4 / RFU, TFCP2 / Fold change vs veh, TFCP2 / RFU, GMCL1 /// GMCL1P1 / Fold change vs veh, GMCL1 /// GMCL1P1 / RFU, AEBP2 / Fold change vs veh, AEBP2 / RFU, SNHG1 /// SNORD22 /// SNORD25 /// SNORD26 /// SNORD27 /// SNORD28 /// SNORD29 /// SNORD31 / Fold change vs veh, SNHG1 /// SNORD22 /// SNORD25 /// SNORD26 /// SNORD27 /// SNORD28 /// SNORD29 /// SNORD31 / Fold change (Aza/veh), C12orf56 (ProbeSet 11735607_a_at) / Fold change (ACY-1035/veh), C12orf56 (ProbeSet 11735607_a_at) / Fold change (Aza/veh), FGFR1OP (ProbeSet 11751329_s_at) / Fold change (ACY-1035/veh), FGFR1OP (ProbeSet 11751329_s_at) / Fold change (Aza/veh), VPS36 (ProbeSet 11739960_a_at) / Fold change (ACY-1035/veh), VPS36 (ProbeSet 11739960_a_at) / RFU SYPL1 (11715823_x_at) / Fold change /veh SYPL1 (11715823_x_at) / RFU IGFBP7 (11715501_s_at) / Fold change /veh IGFBP7 (11715501_s_at) / RFU REEP3 (11722064_at) / Fold change /veh REEP3 (11722064_at) / RFU IGLL1 (11728026_x_at) / Fold change /veh IGLL1 (11728026_x_at): dose or concentration left out as unconfirmed
# Conditions: MV-4-11 cells, 48 hours
smiles,measurement,value
Nc1ncn([C@@H]2O[C@H](CO)[C@@H](O)[C@H]2O)c(=O)n1 [azacitidine],RFU 11762660_at,14.91 RFU

# Source: paper PMC5218480 (PLoS ONE, 2017)
